Measurements taken from patent US10669252B2, “Benzazepine derivative, preparation method, pharmaceutical composition and use thereof” (SHANGHAI DE NOVO PHARMATECH CO., LTD., priority 2016, dated 2020).

Tests used:
TLR8 = target: T1, TLR8 (Homo sapiens, UniProt Q9NR97); assay: TLR8 cell based assay (HEK-BLUE-hTLR8, SEAP reporter linked to NF-κB activation); conditions: HEK-BLUE-hTLR8 cells
T1 construct: host or cells: HEK293 (HEK-BLUE-hTLR8)
T1 sequence (Q9NR97 27-1041): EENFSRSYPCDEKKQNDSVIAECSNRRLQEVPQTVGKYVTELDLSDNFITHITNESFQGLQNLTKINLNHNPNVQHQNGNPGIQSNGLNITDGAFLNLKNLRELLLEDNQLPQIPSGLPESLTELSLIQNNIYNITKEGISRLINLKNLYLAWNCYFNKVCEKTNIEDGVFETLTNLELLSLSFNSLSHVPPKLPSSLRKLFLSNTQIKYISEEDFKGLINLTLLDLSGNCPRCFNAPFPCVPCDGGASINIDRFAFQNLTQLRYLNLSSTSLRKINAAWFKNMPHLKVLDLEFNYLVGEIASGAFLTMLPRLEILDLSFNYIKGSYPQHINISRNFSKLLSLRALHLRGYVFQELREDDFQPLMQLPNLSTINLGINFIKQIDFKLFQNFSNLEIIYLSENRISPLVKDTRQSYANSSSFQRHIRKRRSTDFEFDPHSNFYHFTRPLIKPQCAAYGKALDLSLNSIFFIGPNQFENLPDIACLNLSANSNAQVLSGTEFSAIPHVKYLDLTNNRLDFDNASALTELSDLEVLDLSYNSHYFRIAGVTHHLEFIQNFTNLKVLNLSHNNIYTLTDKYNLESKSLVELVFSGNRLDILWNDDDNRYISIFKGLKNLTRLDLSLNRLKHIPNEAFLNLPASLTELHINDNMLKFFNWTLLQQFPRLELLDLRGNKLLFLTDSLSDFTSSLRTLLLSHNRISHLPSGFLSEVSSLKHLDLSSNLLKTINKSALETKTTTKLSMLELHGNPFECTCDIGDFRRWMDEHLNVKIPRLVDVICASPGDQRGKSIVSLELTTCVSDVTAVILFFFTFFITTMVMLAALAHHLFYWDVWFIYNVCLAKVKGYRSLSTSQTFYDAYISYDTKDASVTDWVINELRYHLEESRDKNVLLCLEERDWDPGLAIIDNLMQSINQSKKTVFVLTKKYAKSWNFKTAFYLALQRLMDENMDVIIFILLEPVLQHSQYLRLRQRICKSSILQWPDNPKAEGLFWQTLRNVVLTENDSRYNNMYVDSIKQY
Procedure, shortened: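 HEK-BLUE-hTLR8 cells (40,000/well) exposed 24 h at 37° C, 5% CO2 to compound, 10 points from 0.5 nM to 15 μM, 0.5% DMSO. Supernatant SEAP read with QUANTI-Blue (1.5 h, 37° C) at OD 650 nm; activation % normalized to DMSO and TLR8 agonist control, EC50 fitted.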

TLR7 = target: T2, TLR7 (Homo sapiens, UniProt Q9NYK1); assay: TLR7 cell based assay (HEK-BLUE-hTLR7, SEAP reporter linked to NF-κB activation); conditions: HEK-BLUE-hTLR7 cells, 24 hours treatment, SEAP/QUANTI-Blue readout
T2 construct: host or cells: HEK293 (HEK-BLUE-hTLR7)
T2 sequence (Q9NYK1 27-1049): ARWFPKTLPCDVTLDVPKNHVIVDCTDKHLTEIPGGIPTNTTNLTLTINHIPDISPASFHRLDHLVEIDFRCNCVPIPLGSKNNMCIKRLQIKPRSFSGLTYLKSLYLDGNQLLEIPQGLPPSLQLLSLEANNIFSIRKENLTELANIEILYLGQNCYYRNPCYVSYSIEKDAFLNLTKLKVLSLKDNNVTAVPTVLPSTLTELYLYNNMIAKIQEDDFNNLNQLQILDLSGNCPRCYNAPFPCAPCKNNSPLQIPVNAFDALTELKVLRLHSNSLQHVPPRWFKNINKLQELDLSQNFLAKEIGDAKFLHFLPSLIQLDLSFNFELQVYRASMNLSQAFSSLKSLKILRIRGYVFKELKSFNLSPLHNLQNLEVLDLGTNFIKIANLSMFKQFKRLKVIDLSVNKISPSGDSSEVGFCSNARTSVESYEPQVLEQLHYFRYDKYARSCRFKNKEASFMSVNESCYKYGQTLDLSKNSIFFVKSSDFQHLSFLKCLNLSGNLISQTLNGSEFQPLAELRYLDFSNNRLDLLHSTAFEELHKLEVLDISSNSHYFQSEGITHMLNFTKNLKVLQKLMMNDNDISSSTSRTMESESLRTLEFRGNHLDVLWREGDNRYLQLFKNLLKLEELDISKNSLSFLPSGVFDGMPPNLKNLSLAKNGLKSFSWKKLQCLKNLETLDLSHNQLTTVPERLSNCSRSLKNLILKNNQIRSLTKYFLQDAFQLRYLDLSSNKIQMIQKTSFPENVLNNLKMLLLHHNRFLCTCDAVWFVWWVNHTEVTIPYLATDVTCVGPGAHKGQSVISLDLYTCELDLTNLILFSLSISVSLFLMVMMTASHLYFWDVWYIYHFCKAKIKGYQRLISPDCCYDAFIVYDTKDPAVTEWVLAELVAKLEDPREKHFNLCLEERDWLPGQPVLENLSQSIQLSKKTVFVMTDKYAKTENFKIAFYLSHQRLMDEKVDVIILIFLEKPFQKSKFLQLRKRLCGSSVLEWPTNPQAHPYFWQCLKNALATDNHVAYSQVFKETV
Experimental: In this assay, the bioactivity of compound of formula (I) was measured using a cell based assay. The assay was performed in human embryonic kidney cells (HEK293) expressing TLR7 or other TLR family members such as TLR4, and TLR9 (for selectivity screens). The activity of specific TLR agonists was assessed using the secretory embryonic alkaline phosphatase (SEAP) reporter gene that is linked to NF-κB activation in response to TLR stimulation. The SEAP activity was measured using the Quanti-Blue substrate (InvivoGen) after TLR agonist treatment.
The detailed experimental method is as follow:
HEK-BLUE-hTLR7 cell line was purchased from InvivoGen. The cells were cultured in Dulbecco's Modified Eagle's Media containing 4.5 g/L […] (Sigma-Aldrich) and 10% FBS. The cells were cultured at 37° C., 95% humidity and 5% CO2.
[…] A known TLR8 agonist was added as positive control and 1 μl of DMSO was added as negative control.
The cells were prepared as follows. The cells were removed from the incubator and growth medium was discarded. The cells were gently rinsed with pre-warmed 10 ml PBS for a T-150 flask. 12 ml pre-warmed growth medium was added, and the cells were detached by tapping the flask. Cell clumps were dissociated by gently pipetting up and down. The cells were counted. Single cell suspension was prepared at 200,000 cells per ml in growth medium and 200 μl of the cell suspension (40,000 cells per well) were immediately added to each well of the plate. The final DMSO concentration of each well was 0.5%.
The cells were cultured and treated with the compounds at 37° C., 5% CO2 for 24 hours.
20 μL of the supernatant of each well were added to 180 μL of QUANTI-Blue, and the plates were incubated at 37° C. for 1.5 hour. Optical density was measured using a spectrophotometer at 650 nm (OD data). Activivation was calculated by using the equation below: Activivation %=(Compound OD mean value−DMSO OD mean value)/(positive control OD mean value−DMSO OD mean value)×100
The data were analyzed using the GraphPad to get EC50 values and fitting dose response curves of the compounds.

[1] = 24 h treatment, SEAP/QUANTI-Blue readout

| Structure (SMILES) | EC50 (TLR8; [1]) [µM] | EC50 (TLR7) [µM] | EC50 (TLR8; bound stated) [µM] |
| --- | --- | --- | --- |
| CCCN(CCC)C(=O)C1=Cc2ccc(-c3ccc4c(=O)n(CC(=O)NC)ncc4c3)cc2N=C(N)C1 [Compound 1-8-2] | < 0.1 | > 50 | – |
| CCCN(CCC)C(=O)C1=Cc2ccc(-c3ccc4c(=O)n(CCO)ncc4c3)cc2N=C(N)C1 [Compound 1-8-3] | < 0.1 | > 50 | – |
| CCCN(CCC)C(=O)C1=Cc2ccc(-c3ccc4c(=O)n(CC(C)(C)O)ncc4c3)cc2N=C(N)C1 [Compound 1-8-4] | < 0.1 | > 50 | – |
| CCCN(CCC)C(=O)C1=Cc2ccc(-c3ccc4c(=O)n(CCS(C)(=O)=O)ncc4c3)cc2N=C(N)C1 [Compound 1-8-5] | < 0.1 | > 50 | < 0.01 |
| CCCN(CCC)C(=O)C1=Cc2ccc(-c3ccc4c(=O)n(CCS(=O)(=O)CC)ncc4c3)cc2N=C(N)C1 [Compound 1-8-12] | < 0.1 | 10 to 50 | – |
| CCCN(CCC)C(=O)C1=Cc2ccc(-c3ccc4c(=O)n(Cc5ncco5)ncc4c3)cc2N=C(N)C1 [Compound 1-8-15] | < 0.1 | 10 to 50 | – |
| CCCN(CCC)C(=O)C1=Cc2ccc(-c3ccc4c(=O)n(CCO)c(=O)n(C)c4c3)cc2N=C(N)C1 [Compound 1-9-1] | < 0.1 | > 50 | – |
| CCCN(CCC)C(=O)C1=Cc2ccc(-c3ccc4c(=O)n(CC(=O)NC)c(=O)n(C)c4c3)cc2N=C(N)C1 [Compound 1-9-2] | < 0.1 | > 50 | – |
| CCCN(CCC)C(=O)C1=Cc2ccc(-c3ccc4c(=O)n(CCS(C)(=O)=O)c(=O)n(C)c4c3)cc2N=C(N)C1 [Compound 1-9-4] | 0.1 to 1 | > 50 | – |
| CCCN(CCC)C(=O)C1=Cc2c(F)cc(-c3ccc4c(=O)n(CC(N)=O)ccc4c3)cc2N=C(N)C1 [Compound 1-10-1] | < 0.1 | > 50 | – |
| CCCN(CCC)C(=O)C1=Cc2c(F)cc(-c3ccc4c(=O)n(CC(=O)N(C)C)ccc4c3)cc2N=C(N)C1 [Compound 1-10-9] | < 0.1 | 1 to 10 | – |
| CCCN(CCC)C(=O)C1=Cc2cc(F)c(-c3ccc4c(=O)n(CC(N)=O)ccc4c3)cc2N=C(N)C1 [Compound 1-11-1] | 1 to 10 | > 50 | – |
| CCCN(CCC)C(=O)C1=Cc2c(C)cc(-c3ccc4c(=O)n(CCS(C)(=O)=O)ncc4c3)cc2N=C(N)C1 [Compound 2-2-2] | < 0.1 | 10 to 50 | – |
